# Measurements taken from the NIST ThermoML archive (doi:10.1016/j.fluid.2016.02.005).
# ± gives the expanded uncertainty stated by the source.
# Conditions: Liquid, Closed cell (Static) method
compound,measurement,setting,value
"C=C(F)C(F)(F)F [2,3,3,3-tetrafluoro-1-propene]",vapor or sublimation pressure,254.1 K,156.8 ± 1.2 kPa
same,vapor or sublimation pressure,273.43 K,318.2 ± 1.6 kPa
same,vapor or sublimation pressure,293.24 K,592.7 ± 2.5 kPa
same,vapor or sublimation pressure,303.17 K,783.9 ± 3.4 kPa
same,vapor or sublimation pressure,318.08 K,1153.4 ± 4.8 kPa
same,vapor or sublimation pressure,332.97 K,1641.5 ± 6.8 kPa
same,vapor or sublimation pressure,348.4 K,2288.8 ± 9.1 kPa
